Results on 24 compounds are retold here after patent publication US20230286930A1, “N -SUBSTITUTED 4-(1,3-ARYLOXAZOLO-2-YL)PHENYL COMPOUNDS FOR THE TREATMENT AND PROPHYLAXIS OF HEPATITIS B VIRUS INFECTION” (Hoffmann-La Roche Inc., priority 2020, published 2023).

Data set [1] can be described thus: PHH natural infection assay, cytotoxicity (Cell Counting Kit-8). Format: cell-based. The conditions noted are these: human. As to the method:
(§1) Detailed procedures regarding primary human hepatocyte (PHH) HBV natural infection assay are described as below. One tube of frozen PHH (10 million cells) is thawed in 37° C. water bath and then transferred to 20 mL of PHH thawing medium (Sigma, InVitroGRO HT Medium, Cat. S03319) with gently mixing. The cells were then centrifuged at […] for 5 min, the supernatant was discarded and the tube was refilled with 25 mL of PHH plating medium (Sigma, InVitroGRO CP Medium, Cat. S03317). The tube was shaken very gently to re-suspend all cells, and then 50 μL of cells were transferred to each well 384-well collagen I coated plate with appropriate liquid handling equipment, e.g. Integra VIAFLO384 or Agilent Bravo. The cells were then cultured for 24 hours in a cell incubator. For HBV infection, after PHH attachment on the culture plate, the plating medium was removed and replenished with PHH culture medium containing HBV virus. The PHH culture medium was prepared with Dulbecco's Modified Eagle Medium (DMEM)/F12 (1:1 in volume ratio) containing 10% fetal bovine serum (Gibco, Cat. 10099141), 5 ng/mL human epidermal growth factor (Gibco, Cat.PHG0311L), 20 ng/mL dexamethasone (Sigma, Cat.D4902-100 mg), 250 ng/mL human recombinant insulin (Gibco, Cat.41400045) and 100 U/mL penicillin. HBV virus at 200 genome equivalent (GE) per cell with 4% PEG8000 (Sigma, Cat.P1458) containing culture medium were added to the PHH culture medium for infection. The cells were then cultured for 24 hours in cell incubator. Then the cell culture supernatant was removed. The HBV-infected PHH were cultured with sandwich culture method with PHH culture medium containing 1% DMSO and 0.25 mg/mL matrix gel for 72 hours. The supernatant was then refreshed with PHH culture medium containing different concentrations of testing compounds for two times with 72-hour interval. At the end of treatment, the supernatant was collected for viral markers measurements, including HBsAg, HBeAg, HBV DNA and cytotoxicity. HBsAg and HBeAg were detected using alphalisa method using their specific antibodies. For HBV DNA detection, HBV DNA Quantitative Fluorescence Diagnostic Kit (Sansure Biotech Inc.) was used following the manufacture's protocol. Cytotoxicity was determined using Cell Counting Kit-8 (CCK8, Dojindo Molecular Technologies, Inc.).

The subject of a further data set is HBeAg. The data set is described as follows: PHH natural infection assay, HBeAg (alphalisa). It is filed as cell-based, HBV. The conditions noted are these: Hepatitis B virus, read-out: HBeAg IC50. Here is the method: as §1
(§2) The compounds of the present invention were tested for their capacity to inhibit HBsAg and HBeAg as described herein.

The test system of the next data set is HBsAg. The experiment in a line: PHH natural infection assay, HBsAg (alphalisa). Format: cell-based, HBV. The conditions noted are these: Hepatitis B virus, read-out: HBsAg IC50. Here is the method: as §1, §2
Background: In Alpha technology, singlet oxygen from a donor bead excites a nearby acceptor bead.

For the compound `Cc1nnc(C(=O)Nc2ccc(-c3nc4ccc(F)c(F)c4o3)cc2)o1` [Example 80, N-[4-(6,7-difluoro-1,3-benzoxazol-2-yl)phenyl]-5-methyl-1,3,4-oxadiazole-2-carboxamide], the CC50 (as a rule, the concentration at which the toxic effect on the cells reaches its halfway point) at 144 h in data set [1] is above 100000 nM. Moreover, the IC50 (usually the concentration that gives 50% inhibition) in the data set on HBeAg was 2110 nM; with HBsAg, 1340 nM.
`Cc1ncc(C(=O)Nc2ccc(-c3nc4ccc(F)c(F)c4o3)cc2)o1` [Example 81, N-[4-(6,7-difluoro-1,3-benzoxazol-2-yl)phenyl]-2-methyl-oxazole-5-carboxamide]: in data set [1], the CC50 at 144 h was above 100000 nM. For the same compound, the IC50 in the data set with HBeAg was 2060 nM; in the data set on HBsAg, 1430 nM.
For `CC(=O)OC1(C(=O)Nc2ccc(-c3nc4cccc(F)c4o3)cc2)CCOCC1` [Example 26, [4-[[4-(7-fluoro-1,3-benzoxazol-2-yl)phenyl]carbamoyl]tetrahydropyran-4-yl] acetate], in that order: 73500 nM, 840 nM and 1080 nM.
For `O=C(Nc1ccc(-c2nc3c(F)cccc3o2)cc1)C1CCOC1` (stereo not drawn) [Example 54, N-[4-(4-fluoro-1,3-benzoxazol-2-yl)phenyl]tetrahydrofuran-3-carboxamide], in that order: above 100000 nM, 2830 nM and 2680 nM.
For `O=C(Nc1ccc(-c2nc3ccc(F)cc3o2)cc1)C1CCSCC1` [Example 4, N-[4-(6-fluoro-1,3-benzoxazol-2-yl)phenyl]tetrahydrothiopyran-4-carboxamide], in that order: above 100000 nM, 640 nM and 1080 nM.
`CCOC(=O)Nc1ccc(-c2nc3c(F)cccc3o2)cc1` [Example 59, ethyl N-[4-(4-fluoro-1,3-benzoxazol-2-yl)phenyl]carbamate] registered a CC50 at 144 h in data set [1] above 100000 nM. The IC50 came to 1570 nM in the data set with HBeAg and 1640 nM with HBsAg.
For `CC(O)C(=O)Nc1ccc(-c2nc3cccc(F)c3o2)cc1` (stereo not drawn) [Example 24, N-[4-(7-fluoro-1,3-benzoxazol-2-yl)phenyl]-2-hydroxy-propanamide], in that order: above 100000 nM, 1800 nM and 940 nM.
`O=C(Nc1ccc(-c2nc3cc(Cl)ccc3o2)cc1)c1ccccn1` [Example 74, N-[4-(5-chloro-1,3-benzoxazol-2-yl)phenyl]pyridine-2-carboxamide] yielded a CC50 at 144 h in data set [1] above 100000 nM. For the same compound, the figures for the IC50 in the data set with HBeAg and with HBsAg were 5440 nM and 4100 nM, respectively.
The corresponding values for `O=C(Nc1ccc(-c2nc3c(F)cccc3o2)cc1)c1ccccn1` [Example 42, N-[4-(4-fluoro-1,3-benzoxazol-2-yl)phenyl]pyridine-2-carboxamide] are above 100000 nM, 520 nM and 460 nM.
The corresponding values for `CC(C)(C)C(=O)Nc1ccc(-c2nc3cc(F)ccc3o2)cc1` [Example 6, N-[4-(5-fluoro-1,3-benzoxazol-2-yl)phenyl]-2,2-dimethyl-propanamide] are above 100000 nM, 5550 nM and 1610 nM.
The corresponding values for `Cc1cnc(C(=O)Nc2ccc(-c3nc4ccc(F)c(F)c4o3)cc2)o1` [Example 78, N-[4-(6,7-difluoro-1,3-benzoxazol-2-yl)phenyl]-5-methyl-oxazole-2-carboxamide] are above 100000 nM, 1110 nM and 810 nM.
The compound `O=C(Nc1ccc(-c2nc3cccc(F)c3o2)cc1)C1CCOC1` (stereo not drawn) [Example 15, N-[4-(7-fluoro-1,3-benzoxazol-2-yl)phenyl]tetrahydrofuran-3-carboxamide] came in with a CC50 at 144 h in data set [1] above 100000 nM. In addition, the IC50 came to 1070 nM with HBeAg and 990 nM in the data set with HBsAg.
The corresponding values for `O=C(Nc1ccc(-c2nc3cc(F)cc(F)c3o2)cc1)C1CCOC1` (stereo not drawn) [Example 70, N-[4-(5,7-difluoro-1,3-benzoxazol-2-yl)phenyl]tetrahydrofuran-3-carboxamide] are above 100000 nM, 2460 nM and 1750 nM.
`O=C(Nc1ccc(-c2nc3cc(Cl)ccc3o2)cc1)C1CCOC1` (stereo not drawn) [Example 75, N-[4-(5-chloro-1,3-benzoxazol-2-yl)phenyl]tetrahydrofuran-3-carboxamide] yielded a CC50 at 144 h in data set [1] above 100000 nM. In addition, the IC50 amounted to 1340 nM in the data set with HBeAg and 1100 nM in the data set with HBsAg.
For `O=C(Nc1ccc(-c2nc3ccc(Cl)cc3o2)cc1)C1CCOC1` (stereo not drawn) [Example 8, N-[4-(6-chloro-1,3-benzoxazol-2-yl)phenyl]tetrahydrofuran-3-carboxamide], in that order: above 100000 nM, 820 nM and 920 nM.
For `O=C(Nc1ccc(-c2nc3c(F)cccc3o2)cc1)c1cccnc1` [Example 46, N-[4-(4-fluoro-1,3-benzoxazol-2-yl)phenyl]pyridine-3-carboxamide], in that order: above 100000 nM, 4530 nM and 2230 nM.
In data set [1], `O=C(Nc1ccc(-c2nc3cccc(F)c3o2)cc1)C1CCSCC1` [Example 30, N-[4-(7-fluoro-1,3-benzoxazol-2-yl)phenyl]tetrahydrothiopyran-4-carboxamide] displayed a CC50 at 144 h above 100000 nM. The IC50 in the data set on HBeAg turned out to be 1470 nM; in the data set on HBsAg, 1490 nM.
The corresponding values for `CC(C)(C)C(=O)Nc1ccc(-c2nc3c(F)cccc3o2)cc1` [Example 53, N-[4-(4-fluoro-1,3-benzoxazol-2-yl)phenyl]-2,2-dimethyl-propanamide] are above 100000 nM, 1170 nM and 1430 nM.
The corresponding values for `O=C(Nc1ccc(-c2nc3c(F)cccc3o2)cc1)C1CS(=O)(=O)C1` [Example 57, N-[4-(4-fluoro-1,3-benzoxazol-2-yl)phenyl]-1,1-dioxo-thietane-3-carboxamide] are above 100000 nM, 9080 nM and 8190 nM.
For `O=C(Nc1ccc(-c2nc3cccnc3o2)cc1)[C@@H]1CCS(=O)(=O)C1` (single isomer, unassigned) [Example 86-b], in that order: above 100000 nM, 1870 nM and 1950 nM.
With `CC1(C(=O)Nc2ccc(-c3nc4c(F)cccc4o3)cc2)CC(=O)C1` [Example 56, N-[4-(4-fluoro-1,3-benzoxazol-2-yl)phenyl]-1-methyl-3-oxo-cyclobutanecarboxamide], the CC50 at 144 h in data set [1] is above 100000 nM. Besides, the IC50 in the data set with HBeAg amounted to 4300 nM; in the data set with HBsAg, 3390 nM.
The compound `O=C(Nc1ccc(-c2nc3cccnc3o2)cc1)C1COC1` [Example 68, N-(4-oxazolo[5,4-b]pyridin-2-ylphenyl)oxetane-3-carboxamide] displayed a CC50 at 144 h in data set [1] above 100000 nM. The IC50 was found to be 4220 nM in the data set on HBeAg and 4510 nM with HBsAg.
In data set [1], `CC(C)(O)C(=O)Nc1ccc(-c2nc3cccc(F)c3o2)cc1` [Example 13, N-[4-(7-fluoro-1,3-benzoxazol-2-yl)phenyl]-2-hydroxy-2-methyl-propanamide] yielded a CC50 at 144 h above 100000 nM. Moreover, the IC50 was found to be 190 nM in the data set with HBeAg and 260 nM in the data set on HBsAg.
As to `O=C(Nc1ccc(-c2nc3c(F)cc(F)cc3o2)cc1)C1CCOC1` (stereo not drawn) [Example 84, N-[4-(4,6-difluoro-1,3-benzoxazol-2-yl)phenyl]tetrahydrofuran-3-carboxamide], the CC50 at 144 h in data set [1] is above 100000 nM. Also, the IC50 with HBeAg amounted to 2010 nM; in the data set with HBsAg, 1400 nM.
